The structures appear in SMILES notation. Structures can show the parent of a compound that is named as a salt.

One assay relates to KRAS G12D mutant AGS cells. The assay is described as follows: Proliferation inhibition of AGS cells, CellTiter-Glo assay. The class given is cell-based, human. Particulars: 3 days, CTG; read-out: AGS IC50/nM. On the procedure:
AGS cells (Nanjing Kebai Biotechnology Co., Ltd., catalog number CBP60476, adherent, culture medium (F12K Nutrient Mixture+10% FBS (GIBCO, Cat#10091-148) were cultured at 37°C, 5% CO2, and 95% humidity at a density of 1500 cells/well. Cells in the logarithmic growth phase were harvested and counted using a Countstar automated cell counter based on the classic trypan blue staining method to ensure cell viability was above 90%. The cell concentration was adjusted, and 80 µL of cell suspension was added to each 96-well clear flat-bottomed, black-walled plate (Greiner, Cat# 655090). The cells in the 96-well plates were then cultured at 37°C and 5% CO2.
Drug preparation for IC50 assay: A 5-fold drug solution was prepared using culture medium. 20 µL of the drug solution was added to each well of a 96-well plate seeded with cells to achieve a working concentration of up to 10 µM, with a 3 × dilution, and a total of 9 concentrations. 2 replicate wells for each drug concentration were set. The cells in the drug-treated 96-well plates were cultured at 37°C and 5% CO2 for additional 3 days and then CTG assay were performed.
The cell plate was equilibrated to room temperature for 30 minutes and the CTG reagent (CellTiter-Glo® Luminescent Cell Viability Assay (Promega, Cat# G7573)) was thawed. 50 µL of CTG solution was added to each well and the plate was shaken on an orbital shaker for 2 minutes to lyse the cells. The cell plate was placed at room temperature for 10 minutes to stabilize the cryo-luminescence signal and the cryo-luminescence value was read (EnVision® Multifunctional microplate reader, PerkinElmer #2105).
(§1) Data was analyzed using GraphPad Prism software. The dose-response-inhibition equation was used to fit the data to obtain the dose-response curve, and the IC50 value (nM) was calculated accordingly. [formula]
Turning to `CN1CC/C(=C\F)[C@](C)(COc2nc(N3CCCn4nc(C(=O)N(C)C)c(Cl)c4C3)c3cc(C4CC4)c(-c4c(F)ccc5sc(N)c(C#N)c45)c(F)c3n2)C1` (single isomer, unassigned) [Example 161B], the IC50 was 33.5 nM.

Staying with this assay, now noted: Homo sapiens, AGS, 72 h, 3 days, CTG; read-out: AGS IC50/nM.
For the molecule `CN1CC[C@H](C(F)F)[C@](C)(COc2nc(N3CCC[C@@](C)(O)C3)c3cc(C(F)(F)F)c(-c4cccc5sc(N)c(C#N)c45)c(F)c3n2)C1` (atropisomer, axis not shown) [Example 3A, (R)-2-amino-4-(2-(((3S,4S)-4-(difluoromethyl)-1,3-dimethylpiperidine-3-yl)methoxy)-8-fluoro-4-((R)-3-hydroxy-3-methylpiperidine-1-yl)-6-(trifluoromethyl)quinazoline-7-yl)benzo[b]thiophene-3-carbonitrile], the IC50 is 112 nM.

Consider `CN1CC/C(=C\F)[C@](C)(COc2nc(N3CCC[C@@](C)(O)C3)c3cc(C(F)(F)F)c(-c4cccc5sc(N)c(C#N)c45)c(F)c3n2)C1` (atropisomer, axis not shown) [Example 4A, (R)-2-amino-4-(8-fluoro-2-(((S,E)-4-(fluoromethylene)-1,3-dimethylpiperidine-3-yl)methoxy)-4-((R)-3-hydroxy-3-methylpiperidine-1-yl)-6-(trifluoromethyl)quinazoline-7-yl)benzo[b]thiophene-3-carbonitrile], for which the IC50 turned out to be 148 nM.

For the molecule `[2H]C([2H])([2H])N1CC/C(=C\F)[C@](C)(COc2nc(N3Cc4cc(C(=O)N(C)CCOC)nn4CC[C@@H]3C)c3cc(CC)c(-c4c(F)ccc5sc(N)c(C#N)c45)c(F)c3n2)C1` (atropisomer, axis not shown) [Example 267A], the IC50 was found to be 4.4 nM.

In the case of `CN1CC/C(=C\F)[C@](C)(COc2nc(N3CCOC[C@@](C)(O)C3)c3cc(Cl)c(-c4c(F)ccc5sc(N)c(C#N)c45)c(F)c3n2)C1` (atropisomer, axis not shown; (Ra)) [Example 85A, (Ra)-2-amino-4-(6-chloro-8-fluoro-2-(((S,E)-4-(fluoromethylene)-1,3-dimethylpiperidine-3-yl)methoxy)-4-((S)-6-hydroxy-6-methyl-1,4-oxazacycloheptane-4-yl)quinazoline-7-yl)-5-fluorobenzo[b]thiophene-3-carbonitrile formate·formic acid salt], the IC50 stood at 22.7 nM.

Consider `[2H]C([2H])([2H])N1CC/C(=C\F)[C@](C)(COc2nc(N3Cc4cc(C(=O)N(C)C)nn4CC[C@@H]3C)c3cc(Cl)c(-c4c(F)ccc5sc(N)c(C#N)c45)c(C)c3n2)C1` (single isomer, unassigned) [Example 177A], for which the IC50 is below 1.5 nM.

Take `[2H]C([2H])([2H])N1CC/C(=C\F)[C@](C)(COc2nc(N3CCCn4nc(C(=O)N(C)C)c(Cl)c4C3)c3cc(Cl)c(-c4c(F)ccc5sc(N)c(C#N)c45)c(C)c3n2)C1` (single isomer, unassigned) [Example 179A]: the IC50 came to 4.2 nM.

`[2H]C([2H])([2H])N1CC/C(=C\F)[C@](C)(COc2nc(N3Cc4c(F)c(C(=O)N(C)C)nn4CC[C@@H]3C)c3cc(CC)c(-c4c(F)ccc5sc(N)c(C#N)c45)c(F)c3n2)C1` (single isomer, unassigned) [Example 181A]: the IC50 was below 1.5 nM.

In the case of `[2H]C([2H])([2H])N1CC[C@H](C(F)F)[C@](C)(COc2nc(N3CCOC[C@@](C)(O)C3)c3cc([N+](=O)[O-])c(-c4cccc5sc(N)c(C#N)c45)c(F)c3n2)C1` [Example 86], the IC50 is 8.7 nM.

As to `CN1CC/C(=C\F)[C@](C)(COc2nc(N3CCCn4nc(C(=O)N(C)C)nc4C3)c3cc(C(F)(F)F)c(-c4cccc5sc(N)c(C#N)c45)c(F)c3n2)C1` [Example 101], the IC50 worked out at 100 nM.

`CN1CC/C(=C\F)[C@](C)(COc2nc(N3CCCn4nc(C(=O)N(C)C)cc4C3)c3cc(C#N)c(-c4cccc5sc(N)c(C#N)c45)c(F)c3n2)C1` [Example 103]: the IC50 is 301 nM.

A further assay relates to KRAS G12V mutant NCI-H727 cells. The assay is described as follows: Proliferation inhibition of NCI-H727 cells, 3D CellTiter-Glo assay (Method B). The class given is cell-based, human. To be noted: Homo sapiens, NCI-H727, 120 h, Method B; 3D culture with 0.65% methylcellulose, 5 days, CTG; read-out: NCI-H727 IC50/nM. On the procedure:
NCI-H727 cells (Nanjing Kebai Biotechnology Co., Ltd., catalog number CBP60182, adherent, culture medium RPMI-1640+10%FBS (GIBCO, Cat#10091-148)) were cultured at 37°C, 5% CO2, and 95% humidity.
3D cell viability assay: Cells in the logarithmic growth phase were harvested and counted using a platelet counter. Cell viability was assessed using the trypan blue exclusion method to ensure a viability of over 90%. The 3D cell culture medium was prepared by adding 1% MC (methylcellulose, Sigma, Cat#M0512) to RPMI-1640 medium and 10% FBS. The cell concentration was adjusted to approximately 25,000 cells/mL using the 3D medium, and the methylcellulose (MC) content was set to 0.65%. Then, 80 µL of cell suspension was added to each 96-well clear, flat-bottomed, black-walled plate (Greiner, Cat# 655096). The cells in the 96-well plates were cultured overnight at 37°C and 5% CO2.
Drug preparation for IC50 assay: A 5-fold drug solution was prepared using culture medium. 20 µL of the drug solution was added to each well of a 96-well plate seeded with cells to achieve a working concentration of up to 10 µM, with a 3× dilution, and 9 concentrations. 2 replicate wells for each drug concentration were set. The cells in the drug-treated 96-well plates were cultured at 37°C and 5% CO2 for additional 5 days, then CTG assay (CellTiter-Glo® Luminescent Cell Viability Assay (Promega, Cat#G7573)) were performed.
The cell plate was equilibrated to room temperature for 30 minutes and the CTG reagent was thawed. 50 µL of CTG solution was added to each well for detection and the plate was shaken on an orbital shaker for 5 minutes to lyse the cells. The cell plate was then placed at room temperature for 25 minutes to stabilize the cryo-luminescence signal, and the cryo-luminescence value was read (EnVision® multi-plate reader, PerkinElmer#2105).
as §1
(In general: ATP-based viability assays read luminescence as a measure of living cells.)
For the molecule `CN1CC[C@H](C(F)F)[C@](C)(COc2nc(N3CCC[C@@](C)(O)C3)c3cc(C(F)(F)F)c(-c4cccc5sc(N)c(C#N)c45)c(F)c3n2)C1` (atropisomer, axis not shown) [Example 3A, (R)-2-amino-4-(2-(((3S,4S)-4-(difluoromethyl)-1,3-dimethylpiperidine-3-yl)methoxy)-8-fluoro-4-((R)-3-hydroxy-3-methylpiperidine-1-yl)-6-(trifluoromethyl)quinazoline-7-yl)benzo[b]thiophene-3-carbonitrile], the IC50 was 40.7 nM.

As to `CN1CC/C(=C\F)[C@](C)(COc2nc(N3CCC[C@@](C)(O)C3)c3cc(C(F)(F)F)c(-c4cccc5sc(N)c(C#N)c45)c(F)c3n2)C1` (atropisomer, axis not shown) [Example 4A, (R)-2-amino-4-(8-fluoro-2-(((S,E)-4-(fluoromethylene)-1,3-dimethylpiperidine-3-yl)methoxy)-4-((R)-3-hydroxy-3-methylpiperidine-1-yl)-6-(trifluoromethyl)quinazoline-7-yl)benzo[b]thiophene-3-carbonitrile], the IC50 came out at 66.9 nM.

Take `[2H]C([2H])([2H])N1CC/C(=C\F)[C@](C)(COc2nc(N3Cc4cc(C(=O)N(C)CCOC)nn4CC[C@@H]3C)c3cc(CC)c(-c4c(F)ccc5sc(N)c(C#N)c45)c(F)c3n2)C1` (atropisomer, axis not shown) [Example 267A]: the IC50 came out at 3.9 nM.

Turning to `CN1CC/C(=C\F)[C@](C)(COc2nc(N3CCOC[C@@](C)(O)C3)c3cc(Cl)c(-c4c(F)ccc5sc(N)c(C#N)c45)c(F)c3n2)C1` (atropisomer, axis not shown; (Ra)) [Example 85A, (Ra)-2-amino-4-(6-chloro-8-fluoro-2-(((S,E)-4-(fluoromethylene)-1,3-dimethylpiperidine-3-yl)methoxy)-4-((S)-6-hydroxy-6-methyl-1,4-oxazacycloheptane-4-yl)quinazoline-7-yl)-5-fluorobenzo[b]thiophene-3-carbonitrile formate·formic acid salt], the IC50 was determined as 17.4 nM.

With `[2H]C([2H])([2H])N1CC/C(=C\F)[C@](C)(COc2nc(N3CCOC[C@@](C)(O)C3)c3cc(C#N)c(-c4c(F)ccc5sc(N)c(C#N)c45)c(F)c3n2)C1` [Example 88, 7-(2-Amino-3-cyano-5-fluorobenzo[b]thiophene-4-yl)-8-fluoro-2-(((S,E)-4-(fluoromethylene)-3-methyl-1-(methyl-d3)piperidine-3-yl)methoxy)-4-((S)-6-hydroxy-6-methyl-1,4-oxazacycloheptane-4-yl)quinazoline-6-carbonitrile], the IC50 stood at 23.3 nM.

For the molecule `[2H]C([2H])([2H])N1CC[C@H](C(F)F)[C@](C)(COc2nc(N3CCOC[C@@](C)(O)C3)c3cc(C#N)c(-c4c(F)ccc5sc(N)c(C#N)c45)c(F)c3n2)C1` [Example 89, 7-(2-Amino-3-cyano-5-fluorobenzo[b]thiophene-4-yl)-2-(((3S,4S)-4-(difluoromethyl)-3-methyl-1-(methyl-d3)piperidine-3-yl)methoxy)-8-fluoro-4-((S)-6-hydroxy-6-methyl-1,4-oxazacycloheptane-4-yl)quinazoline-6-carbonitrile], the IC50 was 12.4 nM.

As to `[2H]C([2H])([2H])N1CC/C(=C\F)[C@](C)(COc2nc(N3CCOC[C@@](C)(O)C3)c3cc(C#N)c(-c4cccc5sc(N)c(C#N)c45)c(F)c3n2)C1` [Example 90, 7-(2-Amino-3-cyanobenzo[b]thiophene-4-yl)-8-fluoro-2-(((S,E)-4-(fluoromethylene)-3-methyl-1-(methyl-d3)piperidine-3-yl)methoxy)-4-((S)-6-hydroxy-6-methyl-1,4-oxazacycloheptane-4-yl)quinazoline-6-carbonitrile], the IC50 turned out to be 58.3 nM.

Consider `CN1CC/C(=C\F)[C@](C)(COc2nc3c(F)c(-c4cccc5sc(N)c(C#N)c45)c(Cl)cc3c(N3CCCn4nc(C(=O)N(C)C)cc4C3)c2C#N)C1` [Example 102], for which the IC50 amounted to 4270 nM.

Staying with this assay, now noted: Method B; 3D culture with 0.65% methylcellulose, 5 days, CTG; read-out: NCI-H727 IC50/nM.
As to `CN1CC/C(=C\F)[C@](C)(COc2nc(N3CCOC[C@@](C)(O)C3)c3cc([N+](=O)[O-])c(-c4cccc5sc(N)c(C#N)c45)c(F)c3n2)C1` (atropisomer, axis not shown; (Ra)) [Example 87A], the IC50 is 3.8 nM.

Consider `CN1CC[C@H](C(F)F)[C@](C)(COc2nc(N3CCOC[C@@](C)(O)C3)c3cc(C(F)(F)F)c(-c4c(F)ccc5sc(N)c(C#N)c45)c(F)c3n2)C1` (single isomer, unassigned) [Example 65A], for which the IC50 is below 1.5 nM.

Regarding `CN1CC[C@H](C(F)F)[C@](C)(COc2nc(N3CCOC[C@@](C)(O)C3)c3cc(C(F)(F)F)c(-c4c(F)ccc5sc(N)c(C#N)c45)c(F)c3n2)C1` (single isomer, unassigned) [Example 65B], the IC50 was 39.3 nM.

Consider `CN1CC[C@H](C(F)F)[C@](C)(COc2nc(N3CCOC[C@@](C)(O)C3)c3cc([N+](=O)[O-])c(-c4cccc5sc(N)c(C#N)c45)c(F)c3n2)C1` [Example 86], for which the IC50 was 4.5 nM.

As for `CN1CC/C(=C\F)[C@](C)(COc2nc(N3CCOC[C@@](C)(O)C3)c3cc([N+](=O)[O-])c(-c4cccc5sc(N)c(C#N)c45)c(F)c3n2)C1` [Example 87], the IC50 was 9 nM.

On to `CN1CCC(=CF)C(C)(COc2nc(N3CCC(C#N)C(O)C3)c3cc(C(F)(F)F)c(-c4cccc5sc(N)c(C#N)c45)c(F)c3n2)C1` (stereo not shown) [Example 155], for which the IC50 worked out at 21 nM.

The values are drawn from patent EP4775577A1, “RAS INHIBITOR” (Tyligand Bioscience (Shanghai) Limited, priority 2023, dated 2025).
